Our source for the IC50 values is patent US6043248A, “Alpha-substituted pyrimidine-thioalkyl and alkylether compounds as inhibitors of viral reverse transcriptase” (priority 1997, dated 2000).

Structures are written as SMILES.

This experiment deals with T1, P236L viral reverse transcriptase (Human immunodeficiency virus type 1 group M subtype B, UniProt P04585, P823L).
T1 construct: P236L viral reverse transcriptase is obtained by PNAS 90: 4713-4717 (1993); made in house
Briefly: inhibition of viral reverse transcriptase (P236L), cell free assay. It is filed as biochemical. The conditions noted are these: 30 minutes at 37° C., read-out: IC50 (Table I, P236L). The source says: The utility of the pyrimidine-thioalkyl and alkylether anti-AIDS compounds of Formula IA of this invention can be determined by their ability to inhibit viral reverse transcriptase, an enzyme essential for human immunodeficiency virus replication. This enzyme has characteristics which differentiate it from other known cellular polymerases and it is a unique enzyme which is not found in uninfected cells. Viral reverse transcriptase (Wild Type) is found in extracts from bacterial clones prepared according to the procedure described in AIDS Virus Reverse Transcriptase defined by high level expression in Escherichia coli, EMBO J. 6:3133-3137 (1987). P236L viral reverse transcriptase is obtained by PNAS 90: 4713-4717 (1993). Inhibition of this enzyme is determined in a cell free assay which measures the level of radioactive precursors incorporated into DNA. Extracts prepared according to the procedure of Science, 1125-1129 (1981) are incubated in a mixture of inhibitor, 20 mM dithiothreitol, 60 mM sodium chloride, 0.05% NP-40, 10 mM magnesium chloride, 50 mM Tris pH 8.3, 10 μM [^35 S]-labeled deoxynuleoside-5'-triphosphate, 10 μg/ml RNA template (poly rC or poly rG) and 5 μg/ml DNA primer (oligo dG or oligo dT) for 30 minutes at 37° C. Incorporation of radio-labeled percursor is determined by spotting aliquots of the reaction mixture on DE81 paper, washing the papers to remove unincorporated percursor, drying and determining counts. The results (IC50 means the concentration, in μM of drug, required to inhibit the reverse transcriptase activity (P236L and Wild Type) to the extent of 50%) of various assay(s) are combined and reported as % inhibition and/or IC50 (calculated) in Table I (P236L) and Table II (Wild Type).

As to `COC(=O)c1ccnc(CSc2nc(N)cc(Cl)n2)c1` [Example 156, 4-amino-6-chloro-2-[2-(4-carbomethoxy)pyridylmethylthio]-pyrimidine], the IC50 – broadly, the concentration at which inhibition is half-maximal – is 100 nM.

For the compound `Cc1c(N)nc(SCc2ccc3ccccc3c2)nc1Cl` [Example 90, 4-amino-5-methyl-6-chloro-2-(2-naphthylmethylthio)-pyrimidine], the IC50 is 5000 nM.

As for `Clc1cc(N2CCCC2)nc(SCc2ccccc2)n1` [Example 85, 4-pyrrolidino-6-chloro-2-(benzylthio)-pyrimidine], the IC50 was 30000 nM.

Consider `Cc1cc(CSc2nc(N)cc(Cl)n2)nc(C)n1` [Example 142, 4-amino-6-chloro-2-[4-(2,6-dimethyl)pyrimidinylmethylthio]-pyrimidine], for which the IC50 was 500 nM.

On to `CC(C)Oc1ccnc(CSc2nc(N)cc(Cl)n2)c1` [Example 126, 4-amino-6-chloro-2-[2-(4-isopropoxy)pyridylmethylthio]-pyrimidine], for which the half-inhibitory concentration (IC50) was 50 nM.

As for `Nc1cc(Cl)nc(SCc2cc(Br)ccn2)n1` [Example 119, 4-amino-6-chloro-2-[2-(4-bromo)pyridylmethylthio]-pyrimidine], the half-inhibitory concentration (IC50) amounted to 40 nM.

Take `Cc1cnc(CSc2nc(N)cc(Cl)n2)cn1` [Example 175, 4-Amino-6-chloro-2-[(5-methylpyrazin-2-ylmethyl)thio]pyrimidine]: the IC50 was determined as 8000 nM.

For the compound `Cc1cc(CSc2nc(N)cc(Cl)n2)nc(N(C)C)c1` [Example 154, 4-amino-6-chloro-2-[2-(6-dimethylamino-4-methyl)pyridylmethylthio]-pyrimidine], the IC50 came out at 50 nM.

Turning to `NNc1cc(Cl)nc(SCc2ccccc2)n1` [Example 88, 4-hydrazino-6-chloro-2-(benzylthio)-pyrimidine], the IC50 came out at 5000 nM.

Regarding `Nc1nc(SCc2ccccn2)nc(Cl)c1F` [Example 92, 4-amino-5-fluoro-6-chloro-2-(2-pyridylmethylthio)-pyrimidine], the IC50 is 1000 nM.

Consider `Nc1cc(Cl)nc(SCc2cccc(F)c2)n1` [Example 41, 4-amino-6-chloro-2-(3-fluorophenylmethylthio)-pyrimidine], for which the IC50 was found to be 200 nM.

Take `Nc1cc(Cl)nc(SCc2cc(Cl)cc(Cl)c2)n1` [Example 50, 4-amino-6-chloro-2-(3,5-dichlorophenylmethylthio)-pyrimidine]: the IC50 stood at 330 nM.

Consider `CC(C)c1ccnc(CSc2nc(N)c(Br)c(Cl)n2)c1` [Example 166, 4-amino-5-bromo-6-chloro-2-[2-(4-isopropyl)pyridylmethylthio]-pyrimidine], for which the half-inhibitory concentration (IC50) came to 20 nM.

Take `Nc1cc(Cl)nc(SCc2cc3ccccc3cn2)n1` [Example 182, 4-Amino-6-chloro-2-[(isoquinolin-3-ylmethyl)thio]pyrimidine]: the IC50 amounted to 20 nM.

For `Nc1cc(Cl)nc(SCc2cccc3ccccc23)n1` [Example 58, 4-amino-6-chloro-2-(1-naphthylmethylthio)-pyrimidine], the half-maximal inhibitory concentration (IC50) is 30 nM.

As for `Nc1cc(Cl)nc(SCc2ccccn2)n1` [Example 55, 4-amino-6-chloro-2-(2-pyridylmethylthio)-pyrimidine], the IC50 stood at 2 nM.

For `Nc1nc(SCc2ccc3ccccc3c2)nc(Cl)c1F` [Example 91, 4-amino-5-fluoro-6-chloro-2-(2-naphthylmethylthio)-pyrimidine], the IC50 came to 2500 nM.

`Cc1ccnc(CSc2nc(N)c(Br)c(Cl)n2)c1` [Example 165, 4-amino-5-bromo-6-chloro-2-[2-(4-methyl)pyridylmethylthio]-pyrimidine]: the IC50 was found to be 50 nM.

`Nc1cc(Cl)nc(SCc2ccc3ccccc3c2)n1` [Example 59, 4-amino-6-chloro-2-(2-naphthylmethylthio)-pyrimidine]: the IC50 was 36 nM.

As for `Cc1cnc(CSc2nc(N)cc(Cl)n2)cc1C` [Example 140, 4-amino-6-chloro-2-[2-(4,5-dimethyl)pyridylmethylthio]-pyrimidine], the IC50 was found to be 20 nM.

Regarding `Nc1cc(Cl)nc(SCc2cccc3ncccc23)n1` [Example 183, 4-Amino-6-chloro-2-[(quinolin-5-ylmethyl)thio]pyrimidine], the IC50 amounted to 40 nM.

Turning to `Nc1cc(Cl)nc(SCc2ccc3c(c2)OCO3)n1` [Example 186, 4-Amino-6-chloro-2-[(piperon-5-ylmethyl)thio]pyrimidine], the IC50 stood at 500 nM.

With `Clc1cc(N2CCCCC2)nc(SCc2ccccc2)n1` [Example 84, 4-piperido-6-chloro-2-(benzylthio)-pyrimidine], the IC50 came to 10000 nM.

`CC(C)(O)c1ccnc(CSc2nc(N)cc(Cl)n2)c1` [Example 135]: the IC50 came to 100 nM.

In the case of `Nc1cc(Cl)nc(SCC2=CCc3ccccc32)n1` [Example 155, 4-amino-6-chloro-2-[(1H-inden-3-ylmethyl)thio]pyrimidine], the 50% inhibitory concentration (IC50) is 5000 nM.

`N#Cc1ccnc(CSc2nc(N)cc(Cl)n2)c1` [Example 128, 4-amino-6-chloro-2-[2-(4-cyano)pyridylmethylthio]-pyrimidine]: the IC50 was 1000 nM.

Take `Nc1cc(Cl)nc(SCc2c(Cl)cccc2Cl)n1` [Example 167, 4-amino-6-chloro-2-(2,6-dichlorophenyl)methylthio-pyrimidine]: the IC50 was 5000 nM.

`Cc1cc(Cl)nc(CSc2nc(N)cc(Cl)n2)c1` [Example 125, 4-amino-6-chloro-2-[2-(6-chloro-4-methyl)pyridylmethylthio]-pyrimidine]: the IC50 stood at 50 nM.

Regarding `Cc1ccc(CSc2nc(N)cc(Cl)n2)nc1` [Example 118, 4-amino-6-chloro-2-[2-(5-methyl)pyridylmethylthio]-pyrimidine], the IC50 was 70 nM.

Take `COc1c(N)nc(SCc2ccc3ccccc3c2)nc1Cl` [Example 89, 4-amino-5-methoxy-6-chloro-2-(2-naphthylmethylthio)-pyrimidine]: the IC50 worked out at 5000 nM.

With `COC(=O)c1cccc(CSc2nc(N)cc(Cl)n2)c1` [Example 46, 4-amino-6-chloro-2-(3-carbomethoxyphenylmethylthio)-pyrimidine], the IC50 was 100 nM.

As for `Nc1cc(Cl)nc(SC/C=C/c2ccccc2)n1` [Example 64, 4-amino-6-chloro-2-(E-styrylmethylthio)-pyrimidine], the IC50 worked out at 66 nM.

Turning to `CCC(CC)c1ccnc(CSc2nc(N)cc(Cl)n2)c1` [Example 151, 4-amino-6-chloro-2-[2-(4-(3-pentyl))pyridylmethylthio]-pyrimidine], the IC50 amounted to 60 nM.

On to `Cc1cncc(CSc2nc(N)cc(Cl)n2)n1` [Example 173, 4-Amino-6-chloro-2-[(6-methylpyrazin-2-ylmethyl)thio]pyrimidine], for which the IC50 was found to be 10000 nM.

Take `Nc1cc(Cl)nc(SCc2cc(C3CC3)ccn2)n1` [Example 137, 4-amino-6-chloro-2-[2-(4-cyclopropyl)pyridylmethylthio]-pyrimidine]: the IC50 came to 10 nM.

With `COc1ccnc(CSc2nc(N)cc(Cl)n2)c1` [Example 123, 4-amino-6-chloro-2-[2-(4-methoxy)pyridylmethylthio]-pyrimidine], the IC50 was 50 nM.

Regarding `COc1cccc(CSc2nc(N)cc(Cl)n2)c1` [Example 39, 4-amino-6-chloro-2-(3-methoxyphenylmethylthio)-pyrimidine], the IC50 is 160 nM.

With `Nc1cc(Cl)nc(SCc2cc3ccccc3s2)n1` [Example 158, 4-Amino-6-chloro-2-[(benzothiophen-2-ylmethyl)thio]pyrimidine], the IC50 was determined as 1000 nM.

Turning to `Nc1cc(Cl)nc(SCc2c(F)cccc2F)n1` [Example 34, 4-amino-6-chloro-2-(2,6-difluorophenylmethylthio)-pyrimidine], the IC50 came out at 10000 nM.

For the compound `Nc1cc(Cl)nc(SCc2ccnc3ccccc23)n1` [Example 181, 4-Amino-6-chloro-2-[(quinolin-4-ylmethyl)thio]pyrimidine], the half-inhibitory concentration (IC50) worked out at 1000 nM.

Consider `Nc1cc(Cl)nc(SCc2ccc(Cl)s2)n1` [Example 144, 4-Amino-6-chloro-2-[(5-chlorothiophen-2-ylmethyl)thio]pyrimidine], for which the IC50 was found to be 5000 nM.

As for `NC(=O)c1ccnc(CSc2nc(N)cc(Cl)n2)c1` [Example 163, 4-amino-6-chloro-2-[2-(4-carboxamido)-pyridylmethylthio]-pyrimidine], the half-inhibitory concentration (IC50) was 20000 nM.

As for `Nc1ccnc(SCc2cccc(Br)c2)n1` [Example 95, 4-amino-2-(3-bromophenylmethylthio)-pyrimidine], the IC50 was 1000 nM.

Take `Nc1nc(SCc2cc(Cl)ccn2)nc(Cl)c1F` [Example 192]: the IC50 was 20 nM.

As to `CCC(C)c1ccnc(CSc2nc(N)cc(Cl)n2)c1` (stereo not shown) [Example 145, 4-amino-6-chloro-2-[2-(4-(2-butyl))pyridylmethylthio]-pyrimidine], the IC50 was determined as 10 nM.

`Nc1cc(Cl)nc(SCc2ccccc2)n1` [Example 34A, 4-amino-6-chloro-2-(benzylthio)-pyrimidine]: the IC50 amounted to 2000 nM.
